Assay results published in patent publication US9663451B2, “Forms of co-crystals of agomelatine and p toluenesulphonic acid, a process for their preparation and pharmaceutical compositions containing them” (LES LABORATOIRES SERVIER, priority 2013, dated 2017).

Legend:
[1] = Stability of samples in incubators, determined by HPLC; format: physicochemical; settings: 30 days
[2] = Solubility by HPLC (external standard method) compared with agomelatine of form II; format: physicochemical
Procedure: By means of an external standard method, the compounds of Examples 1 and 2 are tested by HPLC and compared with agomelatine of form II. The results are presented in Table 4 in the form of % increase in solubility relative to the solubility of agomelatine of form II: […]

| Structure (SMILES) | Stability ([1]; 25° C., 60% RH, open bottle) | Stability ([1]; 40° C., 75% RH, open bottle) | Stability ([1]; 50° C., closed bottle) | Stability ([1]; 70° C., closed bottle) | Solubility (increase versus agomelatine form II) in 0.1N HCl [2] | Solubility (increase versus agomelatine form II) in a buffer pH 6.8 [2] | Solubility (increase versus agomelatine form II) in water [2] |
| --- | --- | --- | --- | --- | --- | --- | --- |
| COc1ccc2cccc(CCNC(C)=O)c2c1.Cc1ccc(S(=O)(=O)O)cc1.O [Compound of Example 1, Agomelatine/p-Toluenesulphonic Acid (1/1) Monohydrate Co-Crystal] | Stable | Stable | Stable | Stable | +50% | +49% | +41% |
| COc1ccc2cccc(CCNC(C)=O)c2c1.Cc1ccc(S(=O)(=O)O)cc1 [Compound of Example 2, Agomelatine/p-Toluenesulphonic Acid (1/1) Co-Crystal] |  |  |  | Stable | +45% | +60% | +35% |
